The values below are quoted from earlier work in US6479068B1, “Therapeutic nutrient regimen for alleviating mucositis, stomatitis and cachexia in oncology patients” (Baxter International Inc., priority 2000, dated 2002).

The conditions of the data set: in vivo.

Take `[Se]` [Selenium, selenium]: the absorption is recorded as 50-100%.
